The first assay relates to Spontaneous hypertensive rat-derived vascular smooth muscle cells (VSMCs) in thoracic aorta. The assay is described as follows: Inhibition test on vascular smooth muscle cells proliferation (3H-thymidine incorporation). As to conditions: 3H-thymidine incorporation into DNA, 24 hours incubation with compound; read-out: Concentration of 50% inhibitory activity (IC50). In kind it is cell-based. On the procedure:
Thus, the compounds of the present invention have a very potent inhibitory effect on vascular smooth muscle cells proliferation.
Spontaneous hypertensive rat-derived vascular smooth muscle cells (VSMCs) in thoracic aorta were isolated by explant technique. The VSMCs were placed into 96 wells at 5000 cells/well and incubated in DMEM containing 10 % fetal calf serum at 37 °C in 95 % air and 5 % carbon dioxide for 3 days. After the incubation, the medium was replaced with DMEM containing each compound and ^3H-thymidine, and then the VSMCs were incubated. 24 hours later, the incorporation of ^3H-thymidine into DNA was determined and the radioactivity was defined as proliferation inhibitory activity of VSMCs. The activity of each compound was shown as a concentration which reduced the radioactivity of non-treated group by 50 % (IC50).
(Incorporation of labelled thymidine or its analogues reports DNA synthesis.)
For `COc1ccc(/C=C/C(=O)Nc2ccccc2C(=O)NCCCc2ccccc2)cc1OC` [Compound 20, (E)-2-(3,4-Dimethoxycinnanoylamino)-N-(3-phenylpropyl)benzamide], the IC50 is 7 µM.

As for `CCCCNC(=O)c1ccccc1NC(=O)/C=C/c1ccc(OC)c(OC)c1` [Compound 19, (E)-N-Butyl-2-(3,4-dimethoxycinnamoylanino)benzamide], the IC50 was determined as 5 µM.

For the compound `COc1cc(/C=C/C(=O)Nc2ccccc2C(=O)NCCO)cc(OC)c1OC` [Compound 45, (E)-N-(2-Hydroxyethyl)-2-(3,4,5-trimethoxycinnnamoylamino)benzamide], the IC50 was found to be 34 µM.

Staying with this assay, now noted: Rattus norvegicus, VSMC; 3H-thymidine incorporation into DNA, 24 hours incubation with compound; read-out: Concentration of 50% inhibitory activity (IC50).
Regarding `CCOc1ccc(/C=C/C(=O)Nc2ccccc2C(N)=O)cc1` [Compound 9, (E)-2-(4-Ethoxycinnamoylamino)benzamide], the IC50 was found to be 5 µM.

Take `COc1ccc(NC(=O)/C=C/c2ccc(OC)c(OC)c2)c(C(=O)NCCO)c1` [Compound 62, (E)-2-(3,4-Dimethoxycinnamoylamino)-N-(2-hydroxyethyl)-5-methoxybenzamide]: the IC50 came out at 89 µM.

`CCOc1c(OC)cc(/C=C/C(=O)Nc2ccccc2C(N)=O)cc1OC` [Compound 35, (E)-2-(3,5-Dimethoxy-4-ethoxycinnamoylamino)benzamide]: the IC50 was found to be 61 µM.

Turning to `COc1ccc(/C=C/C(=O)Nc2ccccc2C(=O)NCCN(CCO)CCO)cc1OC` [Compound 50, (E)-N-[2-[Bis(2-hydroxyethyl)amino]ethyl]-2-(3,4-dimethoxycinnamoylamino)benzamide], the IC50 came out at 71 µM.

Regarding `COc1ccc(/C=C/C(=O)Nc2ccccc2C(=O)NCCCCO)cc1OC` [Compound 47, (E)-2-(3,4-Dimethoxycinnamoylamino)-N-(4-hydroxybutyl)benzamide], the IC50 was 60 µM.

Regarding `COc1ccc(NC(=O)/C=C/c2ccc(OC)c(OC)c2)c(C(N)=O)c1` [Compound 67, (E)-2-(3,4-Dimethoxycinnamoylamino)-5-methoxybenzamide], the IC50 is 57 µM.

In the case of `COc1ccc(/C=C/C(=O)Nc2cc(OC)c(OC)cc2C(=O)NCCO)cc1OC` [Compound 56, (E)-4,5-Dimethoxy-2-(3,4-dimethoxycinnamoylamino)-N-(2-hydroxyethyl)benzamide], the IC50 was 44 µM.

In the case of `COc1ccc(/C=C/C(=O)Nc2ccccc2C(=O)NCCN(C)C)cc1OC` [Compound 39, (E)-2-(3,4-Dimethoxycinnamoylamino)-N-(2-dimethylaminoethyl)benzamide], the IC50 came out at 55 µM.

For `COc1ccc(/C=C/C(=O)Nc2ccccc2C(=O)NCC2CCCCC2)cc1OC` [Compound 59, (E)-N-Cyclohexylmethyl-2-(3,4-dimethoxycinnamoylamino)benzamide], the IC50 was 4 µM.

In the case of `CCOc1cc(/C=C/C(=O)Nc2ccccc2C(=O)NCCO)ccc1OC` [Compound 49, (E)-2-(3-Ethoxy-4-methoxycinnamoylamino)-N-(2-hydroxyethyl)benzamide], the IC50 amounted to 42 µM.

`CCOc1ccc(/C=C/C(=O)Nc2cc(OC)c(OC)cc2C(=O)NCCO)cc1OC` [Compound 61, (E)-4,5-Dimethoxy-2-(4-ethoxy-3-methoxycinnamoylamino)-N-(2-hydroxyethyl)benzamide]: the IC50 was 45 µM.

Consider `CCOc1cccc(/C=C/C(=O)Nc2ccccc2C(N)=O)c1` [Compound 1, (E)-2-(3-Ethoxycinnamoylamino)benzamide], for which the IC50 turned out to be 2 µM.

For the compound `COc1cccc(/C=C/C(=O)Nc2ccccc2C(N)=O)c1OC` [Compound 5, (E)-2-(2,3-Dimethoxycinnamoylamino)benzamide], the IC50 was 5 µM.

Take `COc1ccc(/C=C/C(=O)Nc2cc(OC)c(OC)cc2C(N)=O)cc1OC` [Compound 66, (E)-4,5-Dimethoxy-2-(3,4-dimethoxycinnamoylamino)benzamide]: the IC50 turned out to be 13 µM.

As for `COc1cc(/C=C/C(=O)Nc2ccc(O)cc2C(N)=O)cc(OC)c1OC` [Compound 63, (E)-5-Hydroxy-2-(3,4,5-trimethoxycinnamoylamino)benzamide], the IC50 was 46 µM.

For `COc1ccc(/C=C/C(=O)Nc2ccccc2C(N)=O)c(OC)c1OC` [Compound 31, (E)-2-(2,3,4-Trimethoxycinnamoylamino)benzamide], the IC50 worked out at 54 µM.

Turning to `NC(=O)c1ccccc1NC(=O)/C=C/c1ccc2c(c1)OCCO2` [Compound 38, (E)-2-(3,4-Ethylenedioxycinnamoylamino)benzamide], the IC50 is 58 µM.

As for `COc1ccc(/C=C/C(=O)Nc2ccccc2C(=O)NCCO)cc1OC` [Compound 46, (E)-2-(3,4-Dimethoxycinnamoylamino)-N-(2-hydroxyethyl)benzamide], the IC50 is 58 µM.

Regarding `CCOc1ccccc1/C=C/C(=O)Nc1ccccc1C(N)=O` [Compound 21, (E)-2-(2-Ethoxycinnamoylamino)benzamide], the IC50 was 30 µM.

Consider `COc1cc(OC)c(/C=C/C(=O)Nc2ccccc2C(N)=O)c(OC)c1` [Compound 37, (E)-2-(2,4,6-Trimethoxycinnamoylamino)benzamide], for which the IC50 amounted to 100 µM.

Consider `COc1cc(/C=C/C(=O)Nc2ccccc2C(=O)NCCN(CCO)CCO)cc(OC)c1OC` [Compound 51, (E)-N-[2-[Bis(2-hydroxyethyl)amino]ethyl]-2-(3,4,5-trimethoxycinnamoylamino)benzamide], for which the IC50 was 28 µM.

Consider `COc1ccc(OC)c(/C=C/C(=O)Nc2ccccc2C(N)=O)c1` [Compound 13, (E)-2-(2,5-Dimethoxycinnamoylamino)benzamide], for which the IC50 was 3 µM.

`COc1ccc(/C=C/C(=O)Nc2ccccc2C(=O)NCCOCCO)cc1OC` [Compound 42, (E)-2-(3,4-Dimethoxycinnamoylamino)-N-[2-(2-hydroxyethoxy)ethyl]benzamide]: the IC50 came out at 69 µM.

Take `COc1cc(/C=C/C(=O)Nc2c(O)cccc2C(N)=O)cc(OC)c1OC` [Compound 64, (E)-3-Hydroxy-2-(3,4,5-trimethoxycinnamoylamino)benzamide]: the IC50 was found to be 96 µM.

With `CCOc1cc(/C=C/C(=O)Nc2ccccc2C(N)=O)ccc1OC` [Compound 16, (E)-2-(3-Ethoxy-4-methoxycinnamoylamino)benzamide], the IC50 was 5 µM.

Turning to `CC(=O)c1ccc(/C=C/C(=O)Nc2ccccc2C(N)=O)cc1` [Compound 33, (E)-2-(4-Acetylcinnamoylamino)benzamide], the IC50 came out at 78 µM.

On to `COc1cc(/C=C/C(=O)Nc2ccccc2C(N)=O)cc(OC)c1` [Compound 32, (E)-2-(3,5-Dimethoxycinnamoylamino)benzamide], for which the IC50 was found to be 80 µM.

Regarding `COc1cccc(/C=C/C(=O)Nc2ccccc2C(N)=O)c1` [Compound 11, (E)-2-(3-Methoxycinnamoylamino)benzamide], the IC50 came to 9 µM.

On to `COc1cc(OC)c(OC)cc1/C=C/C(=O)Nc1ccccc1C(N)=O` [Compound 25, (E)-2-(2,4,5-Trimethoxycinnamoylamino)benzamide], for which the IC50 is 6 µM.

`COc1ccc(C(C#N)=CC(=O)Nc2ccccc2C(N)=O)cc1OC` [Compound 53, 2-(β-Cyano-3,4-dimethoxycinnamoylamino)benzamide]: the IC50 is 56 µM.

Turning to `NC(=O)c1ccccc1NC(=O)/C=C/c1cccc(F)c1` [Compound 23, (E)-2-(3-Fluorocinnamoylamino)benzamide], the IC50 turned out to be 39 µM.

Take `COc1ccc(C=C(C#N)C(=O)Nc2ccccc2C(N)=O)cc1OC` [Compound 52, 2-(α-Cyano-3,4-dimethoxycinnamoylamino)benzamide]: the IC50 was determined as 117 µM.

On to `COc1cc(/C=C/C(=O)Nc2ccccc2C(N)=O)cc(OC)c1O` [Compound 69, (E)-2-(3,5-Dimethoxy-4-hydroxycinnamoylamino)benzamide], for which the IC50 turned out to be 55 µM.

For the compound `NC(=O)c1ccccc1NC(=O)/C=C/c1cccc(OCc2ccccc2)c1` [Compound 6, (E)-2-(3-Benzyloxycinnamoylamino)benzamide], the IC50 is 9 µM.

For `COc1cc(/C=C/C(=O)Nc2ccccc2C(N)=O)cc(OC)c1OC` [Compound 26, (E)-2-(3,4,5-Trimethoxycinnamoylamino)benzamide], the IC50 stood at 7 µM.

For the compound `COc1cc(NC(=O)/C=C/c2cc(OC)c(OC)c(OC)c2)c(C(N)=O)cc1OC` [Compound 57, (E)-4,5-Dimethoxy-2-(3,4,5-trimethoxycinnamoylamino)benzamide], the IC50 was found to be 9 µM.

For the compound `CC(C)Oc1cccc(/C=C/C(=O)Nc2ccccc2C(N)=O)c1` [Compound 2, (E)-2-(3-Isopropoxycinnamoylamino)benzamide], the IC50 was determined as 14 µM.

In the case of `COc1cc(/C=C/C(=O)Nc2ccccc2C(=O)NCCOCCO)cc(OC)c1OC` [Compound 43, (E)-N-[2-(2-Hydroxyethoxy)ethyl]-2-(3,4,5-trimethoxycinnamoylamino)benzamide], the IC50 is 44 µM.

As to `CCOc1ccc(/C=C/C(=O)Nc2cc(OC)c(OC)cc2C(N)=O)cc1OC` [Compound 65, (E)-4,5-Dimethoxy-2-(4-ethoxy-3-methoxycinnamoylamino)benzamide], the IC50 is 12 µM.

On to `COc1ccccc1/C=C/C(=O)Nc1ccccc1C(N)=O` [Compound 24, (E)-2-(2-Methoxycinnamoylamino)benzamide], for which the IC50 amounted to 8 µM.

As to `COc1cc(/C=C/C(=O)Nc2ccccc2C(=O)NCCCCO)cc(OC)c1OC` [Compound 48, (E)-N-(4-Hydroxybutyl)-2-(3,4,5-trimethoxycinnamoylamino)benzamide], the IC50 was 42 µM.

As for `COc1ccc(/C=C/C(=O)Nc2ccccc2C(=O)NO)cc1OC` [Compound 60, (E)-2-(3,4-Dimethoxycinnamoylamino)-N-hydroxybenzamide], the IC50 was determined as 36 µM.

The values above are taken from patent EP0855387A1, “2-ACYLAMINOBENZAMIDE DERIVATIVES AND PREVENTIVE AND REMEDY FOR DISEASES CAUSED BY THE SUPERMULTIPLICATION OF VASCULAR INTIMAL CELLS” (KISSEI PHARMACEUTICAL CO., LTD., priority 1995, dated 1997).
